In patent publication US7354904B2, “Bacteriocin inducer peptides” (priority 2005, dated 2008):

Experiments:
Format in all cases: cell-based
S. enteritidis = experiment: Spot Test, antagonistic activity of isolated signal peptides; settings: isolated signal peptide
Method: The antagonistic activity of the bacteriocins produced when using the signal peptide and an inducer strain of bacteria against C. jejuni and S. enteritidis was assessed using a Spot Test. The steps included taking various concentrations of pure preparation (μg/ml) of the bacteriocin in approximately 10 microliters of volume plated onto blood-supplemented Campylobacter agar or Nutrient agar (MPA or Meta Peptone Agar) previously seeded with cells of target bacteria. Plates containing cultures of C. jejuni were grown at about 42° C., under microaerobic conditions. Plates containing S. enteritidis were grown at about 37° C. under aerobic conditions. Activity of the bacteriocin was expressed in arbitrary units (AU) per one milliliter of the preparation at which a visible zone of inhibition of the growth of culture appears (Henderson et al., Archives of Biochemistry and Biophysics, Volume 295, 5-12, 1992; herein incorporated by reference). Specific activity can also expressed as arbitrary units per milligram of pure bacteriocin.
Its activity was about 200 AU/ml and its molecular weight was about 2.5 kDa, as determined by SDS-PAGE electrophoresis. The isoelectric point (pI) was about 7.9 (FIGS. 1A and 1B).
Its molecular weight was about 3.1 kDa as measured by SDS-PAGE and the isoelectric point (pI) was about 8.1 (FIGS. 2A and 2B).
Its molecular weight was about 2.1 kDa as determined by SDS-PAGE electrophoresis and its isoelectric point was about 8.9 (FIGS. 3A and 3B).

[1] = tested on: Streptococcus cricetus LWP 760; experiment: Influence of signal peptide on bacteriocin 760 production, flask culture (fraction protein at 215 nm, activity by Spot Test against C. jejuni and S. enteritidis)
[2] = tested on: Lactobacillus salivarius PVD-32; experiment: Influence of signal peptide on bacteriocin OR-7 production, flask culture (fraction protein at 215 nm, activity by Spot Test against C. jejuni and S. enteritidis)
[3] = tested on: Enterococcus faecium LWP 50-52; experiment: Influence of signal peptide on bacteriocin 50-52 production, flask culture (fraction protein at 215 nm, activity by spot-test against C. jejuni and S. enteritidis)
[4] = LWP 760 + LWP 320, 0.1 mg LWP 50-52 peptide
[5] = 10% B-B, producer PVD-32 + inducer LWP-252, LWP 50-52 peptide 0.1 mg
[6] = LWP 50-52 + LWP 320, peptide 0.001 mg/ml
[7] = LWP 50-52 + LWP 320, peptide 0.001 mg/ml added after about 2 hours
[8] = LWP 50-52 + LWP 320, peptide 0.001 mg/ml added after about 4 hours
[9] = LWP 50-52 + LWP 320, peptide 0.001 mg/ml added after about 6 hours
[10] = LWP 50-52 + LWP 320, peptide 0.01 mg/ml
[11] = LWP 50-52 + LWP 320, peptide 0.01 mg/ml added after about 2 hours
[12] = LWP 50-52 + LWP 320, peptide 0.01 mg/ml added after about 4 hours
[13] = LWP 50-52 + LWP 320, peptide 0.01 mg/ml added after about 6 hours
[14] = LWP 50-52 + LWP 320, peptide 0.1 mg/ml
[15] = LWP 50-52 + LWP 320, peptide 0.1 mg/ml added after about 2 hours
[16] = LWP 50-52 + LWP 320, peptide 0.1 mg/ml added after about 4 hours
[17] = LWP 50-52 + LWP 320, peptide 0.1 mg/ml added after about 6 hours
[18] = LWP 50-52, no inducer, peptide 0.001 mg/ml
[19] = LWP 50-52, no inducer, peptide 0.001 mg/ml added after about 2 hours
[20] = LWP 50-52, no inducer, peptide 0.001 mg/ml added after about 4 hours
[21] = LWP 50-52, no inducer, peptide 0.001 mg/ml added after about 6 hours
[22] = LWP 50-52, no inducer, peptide 0.01 mg.ml added after about 4 hours
[23] = LWP 50-52, no inducer, peptide 0.01 mg.ml added after about 6 hours
[24] = LWP 50-52, no inducer, peptide 0.01 mg/ml
[25] = LWP 50-52, no inducer, peptide 0.01 mg/ml added after about 2 hours
[26] = LWP 50-52, no inducer, peptide 0.1 mg/ml
[27] = LWP 50-52, no inducer, peptide 0.1 mg/ml added after about 2 hours
[28] = LWP 50-52, no inducer, peptide 0.10 mg/ml added after about 4 hours
[29] = LWP 50-52, no inducer, peptide 0.10 mg/ml added after about 6 hours

TNVTKSWWVLAGCNQVVASNCNCGNVKGLT (listed as Enterococcus faecium) [LWP 50-52 Signal Peptide, signal peptide isolated from Enterococcus faecium LWP 50-52, stimulates bacteriocin 50-52 production]
2,642,580 AU/mg: Specific Activity [3, 25]
3,150,769 AU/mg: Specific Activity [3, 29]
301,176 AU/mg: Specific Activity [2, 5]
0.30 mg/mL: Protein Concentration [1, 4]
1: Increase in amount of protein vs. control [1, 4] | Protein increase vs. Control [3, 6] | Protein increase vs. Control [3, 7] | Protein increase vs. Control [3, 8] | Protein increase vs. Control [3, 9] | Protein increase vs. Control [3, 14] | Protein increase vs. Control [3, 15] | Protein increase vs. Control [3, 16] | Protein increase vs. Control [3, 17] | Protein increase vs. Control [3, 18] | Protein increase vs. Control [3, 19] | Protein increase vs. Control [3, 20] | Protein increase vs. Control [3, 21] | Protein increase vs. Control [3, 26]
99 mg: Protein Produced from 1 liter Culture Fluid [1, 4]
0.26 mg/mL: Protein Concentration [3, 29]
did not possess antagonistic activity: antagonistic activity (S. enteritidis)
4: Protein increase vs. Control [3, 10] | Protein increase vs. Control [3, 12] | Protein increase vs. Control [3, 13]
3,062,429 AU/mg: Specific Activity [3, 11]
1,638,840 AU/ml: Activity [1, 4]
330.0 mg protein/liter: mg protein/liter [3, 10] | mg protein/liter [3, 12] | mg protein/liter [3, 13]
0.85: Protein increase vs. Control [2, 5]
0.25 mg/mL: Protein Concentration [3, 6] | Protein Concentration [3, 7] | Protein Concentration [3, 8] | Protein Concentration [3, 9] | Protein Concentration [3, 14] | Protein Concentration [3, 15] | Protein Concentration [3, 16] | Protein Concentration [3, 17] | Protein Concentration [3, 18] | Protein Concentration [3, 19] | Protein Concentration [3, 20] | Protein Concentration [3, 21] | Protein Concentration [3, 26]
about 353.1 mg protein/liter: mg protein/liter ([3]; LWP 50-52 + LWP 320, peptide 0.01 mg/ml added after about 2 hours, listed as signal peptide from LWP 50-52)
4.28: Protein increase vs. Control [3, 11]
56.1 mg protein/liter: mg protein/liter [2, 5]
1.24: Protein increase vs. Control [3, 25]
0.17 Mg/ml: Protein Concentration [2, 5]
1.07 mg/mL: Protein Concentration [3, 11]
819,200 AU/ml: Activity [3, 6] | Activity [3, 7] | Activity [3, 8] | Activity [3, 9] | Activity [3, 14] | Activity [3, 15] | Activity [3, 16] | Activity [3, 17] | Activity [3, 18] | Activity [3, 19] | Activity [3, 20] | Activity [3, 21] | Activity [3, 22] | Activity [3, 23] | Activity [3, 24] | Activity [3, 25] | Activity [3, 26] | Activity [3, 27] | Activity [3, 28] | Activity [3, 29]
353.1 mg protein/liter: mg protein/liter ([3]; LWP 50-52 + LWP 320, peptide 0.01 mg/ml added after about 2 hours, listed as LWP 320 Signal Peptide)
3,276,800 AU/ml: Activity [3, 11]
1,638,400 AU/mg: Specific Activity [3, 10] | Specific Activity [3, 12] | Specific Activity [3, 13]
82.5 mg protein/liter: mg protein/liter [3, 6] | mg protein/liter [3, 7] | mg protein/liter [3, 8] | mg protein/liter [3, 9] | mg protein/liter [3, 14] | mg protein/liter [3, 15] | mg protein/liter [3, 16] | mg protein/liter [3, 17] | mg protein/liter [3, 18] | mg protein/liter [3, 19] | mg protein/liter [3, 20] | mg protein/liter [3, 21] | mg protein/liter [3, 26]
89.1 mg protein/liter: mg protein/liter [3, 22] | mg protein/liter [3, 23] | mg protein/liter [3, 24] | mg protein/liter [3, 27] | mg protein/liter [3, 28]
1,638,400 AU/ml: Activity [3, 10] | Activity [3, 12] | Activity [3, 13]
51,200 AU/ml: Activity [2, 5]
5,462,666 Au/mg: Specific Activity [1, 4]
102.3 mg protein/liter: mg protein/liter [3, 25]
3,276,800 AU/mg: Specific Activity [3, 6] | Specific Activity [3, 7] | Specific Activity [3, 8] | Specific Activity [3, 9] | Specific Activity [3, 14] | Specific Activity [3, 15] | Specific Activity [3, 16] | Specific Activity [3, 17] | Specific Activity [3, 18] | Specific Activity [3, 19] | Specific Activity [3, 20] | Specific Activity [3, 21] | Specific Activity [3, 26]
0.31 mg/mL: Protein Concentration [3, 25]
1.04: Protein increase vs. Control [3, 29]
3,034,074 AU/mg: Specific Activity [3, 22] | Specific Activity [3, 23] | Specific Activity [3, 24] | Specific Activity [3, 27] | Specific Activity [3, 28]
1.0 mg/mL: Protein Concentration [3, 10] | Protein Concentration [3, 12] | Protein Concentration [3, 13]
1.08: Protein increase vs. Control [3, 22] | Protein increase vs. Control [3, 23] | Protein increase vs. Control [3, 24] | Protein increase vs. Control [3, 27] | Protein increase vs. Control [3, 28]
0.27 mg/mL: Protein Concentration [3, 22] | Protein Concentration [3, 23] | Protein Concentration [3, 24] | Protein Concentration [3, 27] | Protein Concentration [3, 28]
did not increase: yield of bacteriocin 760 versus control ([1]; signal peptide of another strain added to LWP 760 + LWP 320)
does not increase: yield of bacteriocin OR-7 versus the control ([2]; signal peptide of another strain added to PVD-32 + LWP-252)
85.8 mg protein/liter: mg protein/liter [3, 29]
